Measurements published in patent US20250235501A1, “Methods and Compositions for Treating or Preventing Neurological Injury or Neurological Disorders” (University of Connecticut, priority 2024, published 2025).

What was measured:
MCAO mice = test: Middle cerebral artery occlusion (MCAO) ischemic stroke model; assay type: in vivo, mouse
[1] = test system: NMDARs (GluN1a, GluN2a, GluN2b); test: Surface expression of NMDARs in HEK293T cells co-transfected with NMDARs and TRPM2 (WB); assay type: cell-based, human; conditions: 10 μM peptide overnight; NMDARs/TRPM2 vs NMDARs/EGFP
Method: FIGS. 4K-4N show the surface expression of NMDARs in HEK-293T cells co-transfected with TRPM2 or EGFP with the treatment of PKC activator PMA (FIG. 4K) and inhibitor Stausporine (FIG. 4L). Membrane (Mem) and cytocol (Cyto) NMDARs were analyzed and averaged from 3 independent experiments with 1 μM PMA treatment (FIG. 4N) or 1 μM Stausporine treatment (FIG. 4L) for overnight. Pan-cadherin and β-tubulin were loading controls for membrane and cytosol protein, respectively (*, p<0.05, **, p<0.01, ***, p<0.001, unpaired t-test, mean±SEM, n=3/group).
FIGS. 5C-5F effects of TAT-EE3 on surface expression of NMDARs. HEK293T cells co-transfected with NMDARs with TRPM2 (+M2) or EGFP vector (Con) were treated with 10 μM TAT-SC (FIG. 5C) or TAT-EE3 (FIG. 5D) overnight. Membrane (Mem) and cytosol (Cyto) proteins of NMDARs in TAT-SC (FIG. 5E) and TAT-EE3 (FIG. 5F) treated groups were assessed by WBs and analyzed in reference to Pan-cadherin or β-tubulin (**, p<0.01, ***, p<0.001, unpaired t-test, mean±SEM). All the results were replicated in at least 3 independent experiments.
Pan-cadherin and β-tubulin were used as loading control for membrane and cytosolic protein extraction.
(§1) were ordered from GenScript Biotech, and dissolved in PBS to make a stock concentration at 10 mM. HEK-293T cells or isolated neurons were treated with TAT-SC or TAT-EE3 at a concentration of 10 μM for at least 8 h prior to use. Mice were injected with TAT-SC or TAT-EE3 intraperitoneally (ip) at a dose of 100 nmol/kg.
HEK293T cells were cultured in Dulbecco's Modified Eagle's medium (DMEM) (Thermal Fisher Scientific, 12100-038) supplemented with 10% BGS (HyClone, SH30541.03) and 0.5% penicillin/streptomycin (Thermal Fisher Scientific, 15140-122) at 37° C. and 5% CO2. 8 h prior to transfection, culture medium was replaced with DMEM supplemented only with 2.5% BGS. Cells were transfected when at a confluence about 80-90% using Lipofectamine® 3000 Transfection Kit (Thermal Fisher Scientific, 2232162) based on instruction.
NP-40/Triton lysis buffer ([…], 1% Triton™ X-100, 150 mM NaCl, 1 mM EDTA, 50 mM Tris, pH=8.0) containing proteinase inhibitors and phosphatase inhibitors was used to lyse both cultured cells and frozen brain tissue. Surface protein was extracted using Pierce® Cell Surface Protein Isolation Kit (Thermal Fisher Scientific, 89881) in transfected HEK-293T cells, and using ProteoExtract™ Native Membrane Protein Extraction Kit (Calbiochem, 444810) in brain tissue based on instructions. […] Protein concentration was measured using Pierce™ Rapid Gold BCA Protein Assay Kit.
30-50 μg of total protein was loaded and separated proteins were transferred to Nitrocellulose membranes. […] Band intensity was quantified using ImageJ software and normalized with appropriate loading controls.

[2] = molecular target: T1, TRPM2 interaction with GluN2a (Rattus norvegicus, UniProt Q00959); test: Co-IP of TRPM2 with GluN2a in co-transfected HEK293T cells; assay type: cell-based, human; conditions: 10 μM peptide overnight; IP anti-GluN2a, WB anti-Flag
T1 construct: TRPM2 plasmid a gift 17928; 17924; 17925; host or cells: HEK293T
Method: FIGS. 5A and 5B show the effects of TAT-EE3 on interaction of TRPM2 and NMDARs. Co-IP tests of NMDARs with WT or EE3 domain mutants of TRPM2 (Flag-tagged) in co-transfected HEK293T cells. WT TRPM2 groups were treated with 10 μM TAT-SC or TAT-EE3 overnight. Lysates were IP's with anti-GluN2a (FIG. 5A) or anti-GluN2b (FIG. 5B), and probed by WBs with anti-Flag. IgG was used as control for IP. Similar to the mutants TRPM2-ΔEE3 and TRPM2-EQE, TAT-EE3 disrupted TRPM2 interaction with GluN2a and GluN2b.
as §1, with “nmol/kg. […]” for “nmol/kg.”
NP-40 lysis buffer ([…], 150 mM NaCl, 1 mM EDTA, 50 mM Tris, pH=8.0) containing proteinase inhibitors (Sigma-Aldrich, 539131-10VL) and phosphatase inhibitors (Thermal Fisher Scientific, 78428) was used to lyse both cultured cells and frozen brain tissue. […] Protein concentration was measured using Pierce™ Rapid Gold BCA Protein Assay Kit (Thermal Fisher Scientific, A53225). […] Then samples were ready for western blotting analysis.

[3] = 100 nmol/kg ip 15 mins before MCAO, 24 hrs after MCAO, vs TAT-SC-treated mice
[4] = 1 h MCAO, administered every 12 h, day 1, day 3, and day 7
[5] = FIGS. 18C-18E, pre-MCAO administration i.p. 30 min before MCAO
[6] = post-MCAO treatment, injected right before reopening of the MCA, WT mice

T1 sequence (Q00959 23-1464, other chains not shown): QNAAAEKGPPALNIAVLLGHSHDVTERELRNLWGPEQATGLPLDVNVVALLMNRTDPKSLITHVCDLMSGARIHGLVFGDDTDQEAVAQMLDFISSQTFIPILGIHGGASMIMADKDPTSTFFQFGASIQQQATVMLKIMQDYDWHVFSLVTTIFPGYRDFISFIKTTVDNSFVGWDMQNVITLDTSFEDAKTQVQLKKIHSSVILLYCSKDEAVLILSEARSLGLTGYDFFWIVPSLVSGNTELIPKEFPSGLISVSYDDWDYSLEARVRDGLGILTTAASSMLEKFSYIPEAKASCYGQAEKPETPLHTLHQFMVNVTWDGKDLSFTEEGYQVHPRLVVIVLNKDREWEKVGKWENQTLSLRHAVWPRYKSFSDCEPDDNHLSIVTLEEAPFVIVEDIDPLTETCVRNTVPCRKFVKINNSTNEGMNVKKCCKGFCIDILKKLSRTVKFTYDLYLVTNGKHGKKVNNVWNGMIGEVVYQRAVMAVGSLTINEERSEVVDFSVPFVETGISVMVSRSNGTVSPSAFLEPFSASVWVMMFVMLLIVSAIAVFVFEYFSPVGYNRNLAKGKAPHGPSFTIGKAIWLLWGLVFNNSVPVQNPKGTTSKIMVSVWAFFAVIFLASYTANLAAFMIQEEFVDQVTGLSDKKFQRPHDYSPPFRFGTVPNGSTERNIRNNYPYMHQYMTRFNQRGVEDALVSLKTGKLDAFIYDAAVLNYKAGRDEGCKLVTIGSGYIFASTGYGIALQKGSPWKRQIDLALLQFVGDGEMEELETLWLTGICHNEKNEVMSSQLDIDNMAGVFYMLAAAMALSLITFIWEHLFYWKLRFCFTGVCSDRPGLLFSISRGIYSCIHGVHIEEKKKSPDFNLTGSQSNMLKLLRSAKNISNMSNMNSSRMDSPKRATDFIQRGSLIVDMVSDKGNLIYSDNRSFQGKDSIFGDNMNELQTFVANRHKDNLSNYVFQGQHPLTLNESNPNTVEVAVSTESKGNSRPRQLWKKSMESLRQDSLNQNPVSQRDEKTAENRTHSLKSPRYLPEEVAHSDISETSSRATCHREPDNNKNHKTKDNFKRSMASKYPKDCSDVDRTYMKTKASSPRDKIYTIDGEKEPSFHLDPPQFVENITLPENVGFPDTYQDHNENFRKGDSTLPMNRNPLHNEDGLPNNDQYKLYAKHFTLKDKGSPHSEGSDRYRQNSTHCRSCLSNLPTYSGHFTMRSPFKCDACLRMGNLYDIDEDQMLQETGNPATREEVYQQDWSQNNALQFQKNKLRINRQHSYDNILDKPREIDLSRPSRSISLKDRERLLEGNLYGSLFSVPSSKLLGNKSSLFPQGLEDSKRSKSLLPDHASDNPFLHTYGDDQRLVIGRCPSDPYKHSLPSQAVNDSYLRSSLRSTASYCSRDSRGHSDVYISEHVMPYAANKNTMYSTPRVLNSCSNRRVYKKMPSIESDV

For “TAT-EE3: membrane permeable disrupting peptide, sequence YGRKKRRQRRREEDTDSSEEMLALAEE (SEQ ID NO: 4)”, the infarct volume (MCAO mice; [3]) was “significantly reduced”, the neurological behavior scores (MCAO mice; [3]) was “improved” and the “ND scores, long-term MCAO (7 days)” value (MCAO mice; [4]) was “improved”. For the same substance, the “latency to fall time (rotarod test), long-term MCAO” value (MCAO mice; [4]) was “inhibited the reduction”, the infarct volume (MCAO mice; [5]) was “reduced” and the “neurological deficit (ND) score” value (MCAO mice; [5]) was “improved”. For the same substance, the ND score (MCAO mice; [6]) was “improved”, the infarct volume (MCAO mice; [6]) was “reduced” and the “protective effects in nM2KO mice” value (MCAO mice; post-MCAO treatment, neuron-specific TRPM2 knockout mice) was “did not produce further protective effects”. For the same substance, the “enhancement of NMDAR surface expression by TRPM2” value [1] was “eliminated the enhancement” and the “interaction of TRPM2 with GluN2a (co-IP)” value [2] was “completely disrupted”.
